Data taken from US20240301409A1, “Chemically Modified Small Activating RNA” (RACTIGEN THERAPEUTICS, priority 2021, published 2024).

Key:
p21 gene = test: p21 mRNA expression by RT-qPCR in Ku-7-LG cells; format: cell-based, human; conditions: 10 nM
Protocol: Ku-7-LG and T24 cells were transfected with the indicated saRNA at a final concentration of 10 nM for 3 days. After transfection, the RNA was extracted with the Qiagen RNeasy kit. After reverse transcription, the ABI 7500 fast real-time PCR system was used for qPCR amplification. The GAPDH gene was amplified as an internal reference. […] Dashed line indicates duplex Rag1-40 with no chemical modification in comparison, and the values above the line indicate stronger activity. The control was blank transfection without oligonucleotide. dsCon2 is transfected with a double-stranded scramble RNA. The value of the ordinate represents the mean±SD of 2 repeated treatments.
The control and dsCon2 were blank transfection and scramble dsRNA transfection, respectively. The values in the ordinate represent the mean±SD of 2 repeated treatments.
Human bladder cancer cells Ku-7-LG (ATCC), J82 (ATCC) and T24 (ATCC) were cultured in McCoy medium (Gibco) comprising 10% calf serum (Sigma-Aldrich) and 1% penicillin/Streptomycin (Gibco). Cells were cultured at 37° C. under 5% CO2. Ku-7-LG, J82 and T24 cells were plated into 12-well plates at 10×10^4 cells per well, transfected with the small RNA at a concentration of 10 nM (unless otherwise specified) for three days, using RNAiMax (Invitrogen, Carlsbad, CA) according to the manufacturer's instructions. Two replicate wells were set for each treatment.
After transfection, the medium was discarded and to each well 500 μl cell lysate was added and incubated at room temperature for 5 minutes. RNA was extracted with the Qiagen RNeasy kit, and after reverse transcription, qPCR analysis was performed on the ABI 7500 Fast Real-time PCR system (Applied Biosystems). Each sample was amplified in 3 replicate wells.
The PCR reaction conditions are: 95° C. for 30 seconds, 95° C. for 5 seconds, 60° C. for 30 seconds, and 40 cycles of amplification. The GAPDH gene was amplified as an internal reference at the same time. p21 was amplified with the p21F1/R1 primer pair, and the specific sequences of the amplification primers are shown in Table 1.
In order to calculate the expression value (Erel) of p21 (target gene) of a saRNA transfection sample relative to the control treatment, Formula 1 is used to input the Ct values of the target gene and the internal reference gene for calculation.
wherein, CtTm is the Ct value of the target gene from the control treatment sample; CtTs is the Ct value of the target gene from the saRNA treated sample; CtRm is the Ct value of the internal reference gene from the control treatment sample; and CtRs is the Ct value of the internal reference gene from the saRNA treated sample.
The main purpose of introducing chemical modifications to regulatory oligonucleotides of a gene is to improve their pharmaceutical properties, including enhancing in vivo stability and mitigating off-target effects (e.g., sequence-dependent targeting of unrelated genes, sequence-dependent or independent immune stimulation), while maintaining their gene regulatory capacity (gene knockdown or activation). To assess the effect of chemical modification on the RNAa activity of saRNA on the p21 gene, 10 nM unmodified (Rag1-40) and modified (Rag1-40-1 to Rag1-40-34) duplexes were transfected into Ku-7-LG and T24 cells, respectively. After 72 hours, the mRNA expression level of p21 was assessed by RT-qPCR. All duplexes induced p21 mRNA expression in all […] at least double that of the control.
In order to further evaluate the expression level of p21 mRNA after the different durations of treatment by the chemically modified saRNA duplexes, two saRNAs (RAG1-40-31 and RAG1-40-53) were randomly selected from the above chemically modified saRNA duplexes for detection. RAG1-40-31 and RAG1-40-53 were transfected into Ku-7-LG and T24 cells at a final concentration of 10 nM, for 1, 2, 3, 4, 7 and 9 days, respectively. Each treatment was set up in duplicate. […]

Ku-7-LG cells = test: Cell cycle detection by flow cytometry in Ku-7-LG cells; format: cell-based, human; conditions: 48 hours
Protocol: RAG1-40-31 and RAG1-40-53 were transfected into Ku-7-LG cells at the final concentrations of 0.1, 1, 10 and 50 nM, and the transfection duration was 48 hours. Two replicate wells were used for each treatment. After transfection, the cell cycle was analyzed by flow cytometry, and the collected data were analyzed by MotFit software.
After transfection, the supernatant was discarded to collect cells. To each well 500 μL PBS was added for one wash and then discarded. To each well 100 μL trypsin was further added. 900 μL medium was added to stop digestion before transferring to a 1.5 mL centrifuge tube. All the cells were collected through centrifugation (400 rcf, 5 min) and counted (2×10^5 cells/200 μL PBS). Cold 70% absolute ethanol was added before incubation overnight at 4° C. After washing twice with PBS, 200 μL Krishan buffer was added before incubation at 4° C. for 1 hour. After washing twice with PBS, the supernatant was discarded and 200 μL PBS was added for cell re-suspension, then the cells were transferred to a 96-well plate and analyzed by flow cytometer. The collected data were analyzed with MotFit software.
In order to study the mechanism of cellular proliferation suppression, change in cell cycle was analyzed using flow cytometry in this example. Randomly selected saRNAs RAG1-40-31 and RAG1-40-53 were transfected into Ku-7-LG cells at final concentrations of 0.1, 1, 10 and 50 nM, respectively, for 48 hours. Each treatment was set in duplicate. Cell cycle was detected and analyzed as described in the general protocol above.

[1] = tested on: Rag1-40 target sequence in the 3′ UTR of firefly luciferase, COS-1 cells

Substance: RAG1-40-31: saRNA duplex: sense fCfCAACUCAUUCUCCAAG*U*C (SEQ ID NO 16); antisense U*A*fCfUfUGGAGAAfUGAGfUfUGG*fC*A (SEQ ID NO 12) (sense CCAACUCAUUCUCCAAGUC; antisense UACUUGGAGAAUGAGUUGGCA; 2'-F and phosphorothioate modifications; modified_base (1)..(2) (1,2)=2′-fluoro; modified_base (17)..(19) (17,18,19)=phosphorothioate (PS) backbone modification; modified_base (2)..(21) (2,3,19,20,21)=phosphorothioate (PS) backbone modification; modified_base (3)..(20) (3,4,5,12,16,17,20)=2′-fluoro)
- increase of expression level of p21 mRNA compared with the control group (p21 gene; 1 day): 1.3 fold
- increase of expression level of p21 mRNA compared with the control group (p21 gene; 2 days): 11.4 fold
- increase of expression level of p21 mRNA compared with the control group (p21 gene; 3 days): 8.7 fold
- increase of expression level of p21 mRNA compared with the control group (p21 gene; 4 days): 6.1 fold
- increase of expression level of p21 mRNA compared with the control group (p21 gene; 7 days): 2.6 fold
- increase of expression level of p21 mRNA compared with the control group (p21 gene; 9 days): 3.8 fold
- percentage of cells in DNA anaphase/mitosis (G2/M) (Ku-7-LG cells; 0.1 nM): 6%
- percentage of cells in DNA replication phase (S phase) (Ku-7-LG cells; 0.1 nM): 32%
- percentage of cells in prophase of DNA synthesis (G0/G1) (Ku-7-LG cells; 0.1 nM): 62%
- percentage of cells in DNA anaphase/mitosis (G2/M) (Ku-7-LG cells; 1 nM): 9%
- percentage of cells in DNA replication phase (S phase) (Ku-7-LG cells; 1 nM): 22%
- percentage of cells in prophase of DNA synthesis (G0/G1) (Ku-7-LG cells; 1 nM): 69%
- percentage of cells in DNA anaphase/mitosis (G2/M) (Ku-7-LG cells; 10 nM): 8%
- percentage of cells in DNA replication phase (S phase) (Ku-7-LG cells; 10 nM): 11%
- percentage of cells in prophase of DNA synthesis (G0/G1) (Ku-7-LG cells; 10 nM): 81%
- percentage of cells in DNA anaphase/mitosis (G2/M) (Ku-7-LG cells; 50 nM): 13%
- percentage of cells in DNA replication phase (S phase) (Ku-7-LG cells; 50 nM): 6%
- percentage of cells in prophase of DNA synthesis (G0/G1) (Ku-7-LG cells; 50 nM): 81%
- off-target effect compared to unmodified Rag1-40, in words [1]: mitigated or similar off-target effects
